Results on 4 molecules are retold here after US20240197729A1, “ALK-5 Inhibitors and Uses Thereof” (Sumitomo Pharma Oncology, Inc., priority 2021, published 2024).

Bounds are passed on as bounds.

The target of one assay is T1, ALK5 (Homo sapiens, UniProt P36897).
T1 sequence (P36897 34-503): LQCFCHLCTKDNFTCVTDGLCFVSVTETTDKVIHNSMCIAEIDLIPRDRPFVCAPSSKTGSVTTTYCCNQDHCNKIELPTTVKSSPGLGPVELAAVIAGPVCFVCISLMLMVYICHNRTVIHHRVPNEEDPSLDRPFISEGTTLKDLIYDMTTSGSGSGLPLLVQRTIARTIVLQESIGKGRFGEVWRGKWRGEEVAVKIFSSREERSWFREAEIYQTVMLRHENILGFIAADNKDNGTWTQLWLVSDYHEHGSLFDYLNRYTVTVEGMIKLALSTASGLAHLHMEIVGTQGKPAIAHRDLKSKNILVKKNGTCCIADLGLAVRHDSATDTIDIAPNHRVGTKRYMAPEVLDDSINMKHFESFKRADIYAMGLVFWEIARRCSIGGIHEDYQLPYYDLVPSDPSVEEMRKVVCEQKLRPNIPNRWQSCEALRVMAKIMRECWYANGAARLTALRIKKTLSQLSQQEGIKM
The experiment in a line: LanthaScreen Eu Kinase Binding Assay, ALK5. Conditions: 10-point titration, read-out: Kinase Inhibition: ALK5 IC50 (Lantha). The method, then:
Selected compounds of the present disclosure were assayed for inhibitory activity against ALK5 and ALK2. Activity determinations and selectivity were conducted by Thermo Fisher Scientific SelectScreen™ Biochemical Kinase Profiling Service using their LanthaScreen™ Eu Kinase Binding Assay Screening.
Binding of an Alexa Fluor™ conjugate or “tracer” to a kinase is detected by addition of a Eu-labeled anti-tag antibody. Binding of the tracer and antibody to a kinase results in a high degree of FRET, whereas displacement of the tracer with a kinase inhibitor results in a loss of FRET. This assay is carried out by mixing the compound tested with the reagents and reading; no development step is required.
Life Technologies' Kinase Tracers are based on ATP-competitive kinase inhibitors, making them suitable for detection of any compounds that bind to the ATP site. Inhibitors that bind the ATP site include both Type I kinase inhibitors, which bind solely to the ATP site, and Type II inhibitors (e.g., Gleevec®/Imatinib, Sorafenib, BIRB-796), which bind to both the ATP site and a second site often referred to as the allosteric site.
The test compounds were screened in 1% DMSO (final) in the well. For 10-point titrations, 3-fold serial dilutions were conducted from the starting concentration (see Table 2 below).
All Kinase/Antibody Mixtures were diluted to a 2× working concentration in the specified kinase buffer. The 4× AlexaFluor labeled Tracer was prepared in Kinase Buffer.
• Bar-coded, low volume, white, 384-well plate (Greiner Cat. #784207) • 1. 160 nL—100× Test Compound in 100% DMSO • 2. 3.84 μL—Kinase Buffer • 3. 8.0 μL—2× Kinase/Antibody Mixture • 4. 4.0 μL—4× Tracer • 5. 30-second plate shake • 6. 60-minute incubation at room temperature • 7. Read on fluorescence plate reader and analysis of the data
The following controls were made for each individual kinase and were located on the same plate as the kinase:
100% Displacement Control: The minimum Emission Ratio was established by the 100% Displacement Control wells, which contained the highest concentration of the known inhibitor used in that assay.
Known Inhibitor: A known inhibitor control standard curve, 10-point titration, was run for each individual kinase on the same plate as the kinase to ensure the inhibitor was displaced within an expected IC50 range previously determined.
The following equations were used for each set of data points: […]
Data generated were plotted using the graphing software XLfit from IDBS. The dose response curve was curve fit to model number 205.
(In general: Time-resolved FRET reads energy transfer from a long-lived donor to a nearby acceptor.)

Assay [1] has as its system phospho-SMAD2 (S465/S467). The assay is described as follows: Phospho-SMAD2 assay in RDSR cells. Conditions: Homo sapiens, 0.5 h, 100 ng/ml TGF-β1, 30 minutes. In kind it is cell-based. An excerpt: TGF-β is a pleiotropic cytokine involved in extremely conserved pathways relevant to cell growth, differentiation, and development. TGF-β signaling is triggered when the activated TGF-β homodimer binds to the TGF-β receptor 2 (TGFbR2), which in turn leads to the recruitment and phosphorylation of TGF-β receptor 1 (TGFbR1). Activated TGFbR1 phosphorylates the signal transduction molecules SMAD2 and SMAD3, which then bind to the common mediator SMAD4 and translocate to the nucleus where they alter gene transcription. In this assay, phospho-SMAD2 (S465/S467), a direct phosphorylation substrate of TGFbR1, was used as a readout of TGF-β pathway activity. Vactosertib (a TGFbR1 inhibitor available from MedChem Express HY-19928) was included as a positive control.
The RD SMAD reporter (RDSR) cell line was generated by stably integrating the SMAD reporter plasmid (Promega, pGL4.48[luc2P/SBE/Hygro]) into the human rhabdomyosarcoma cell line RD (ATCC, CCL-136).
RDSR cells were seeded in DMEM (ATCC30-2002)+10% FBS in 96-well plate and allowed to grow overnight at 5% CO2 and 37° C. The next day, cells were pre-treated with Compound 04, Compound 01 or vactosertib at various concentrations, or with vehicle (DMSO), for one hour. Cells were then stimulated with recombinant human TGF-β1 (R&D Systems 7754-BH-005) at a final concentration of 100 ng/ml, in the presence of Compound 04, Compound 01, vactosertib, or DMSO for thirty minutes. A no-TGF-β1 stimulation condition was included for baseline phospho-SMAD2 level measurement.
The phospho-SMAD2 levels were determined using the Bio-Plex Pro™ Phospho-Smad2 (Ser465/Ser467) bead/antibody set (BioRad 171V50019M). Phospho-SMAD2 levels were normalized to ß-tubulin (MILLIPLEX MAP ß-Tubulin Total Magnetic Bead MAPmate™, Millipore 46-713MAG) or GAPDH (MILLIPLEX MAP GAPDH Total Magnetic Bead MAPmate™, Millipore 46-667MAG) levels from each sample. All samples were analyzed in a multiplex fashion with the Bio-Plex Pro Cell Signaling Reagent Kit (BioRad 171304006M). […] Bead suspension was analyzed using the Luminex system (MAGPIX). […]

`Cc1nn(CC(F)(F)F)cc1Nc1cc(Nc2cnnc3c(C)cccc23)ccn1` [Compound 01, N2-[3-methyl-1-(2,2,2-trifluoroethyl)-1H-pyrazol-4-yl]-N4-(8-methylcinnolin-4-yl)pyridine-2,4-diamine]: the 50% inhibitory concentration (IC50) at ALK5 is at most 2 nM; in assay [1], below 200 nM. With `Cc1cccc(-c2[nH]c(CNc3ccccc3F)nc2-c2ccc3ncnn3c2)n1` [Vactosertib, vactosertib, reference compound], the 50% inhibitory concentration (IC50) in assay [1] is below 200 nM. With `Cc1cccc2c(Nc3ccnc(Nc4ccc(N5CCOCC5)cc4)c3)cnnc12` [Compound 05, N4-(8-methylcinnolin-4-yl)-N2-[4-(morpholin-4-yl)phenyl]pyridine-2,4-diamine], the IC50 on ALK5 fell in the range of 2 to 5 nM. For the molecule `Clc1cccc2c(Nc3ccnc(Nc4cccc(N5CCOCC5)c4)c3)cnnc12` [Compound 04, N4-(8-chlorocinnolin-4-yl)-N2-[3-(morpholin-4-yl)phenyl]pyridine-2,4-diamine], the values for the IC50 (on ALK5; in assay [1]) were 2 to 5 nM and below 200 nM, respectively.

For orientation: IC50 means the concentration that gives 50% inhibition.
